From ChEMBL document CHEMBL5244275, “Geminal Diheteroatomic Motifs: Some Applications of Acetals, Ketals, and Their Sulfur and Nitrogen Homologues in Medicinal Chemistry and Drug Design” (J Med Chem, 2021)
Converted amounts (≈) assume the structure as drawn.

What was measured:
[1] = tested on: Human immunodeficiency virus 1; experiment: microbe, parasite or virus in culture; conditions: Human immunodeficiency virus 1, LAV
[2] = tested on: Human immunodeficiency virus 1; experiment: Antiviral activity against HIV-1 RF; type: functional, organism-based; conditions: Human immunodeficiency virus 1, RF
[3] = Dissociation constant, pKa of the compound; type: physicochemical
[4] = Drug degradation in citrate buffer at pH 8.5 measured after 18 hrs; type: physicochemical; conditions: read-out: Drug degradation
[5] = Drug degradation in citrate buffer at pH 4 measured after 18 hrs; type: physicochemical; conditions: read-out: Drug degradation
[6] = species on record: Mus musculus; experiment: Analgesic activity in mouse assessed as protection against phenylbenzoquinone-induced writhing; type: functional
[7] = tested on: Human immunodeficiency virus 1; experiment: Selectivity index, ratio of EC50 for antiviral activity against HIV-1 G140S/Q148R mutant to EC50 for antiviral activity against wild-type HIV-1; type: functional
[8] = Unbound fraction in human plasma; type: ADME, cell-free
[9] = target: PXR (NR1I2) (Homo sapiens, UniProt O75469); experiment: Activation of PXR (unknown origin) in human DPX2 cells assessed as maximal efficacy at 15 uM relative to control; type: cell-based
Chain of PXR (NR1I2) (O75469 whole entry): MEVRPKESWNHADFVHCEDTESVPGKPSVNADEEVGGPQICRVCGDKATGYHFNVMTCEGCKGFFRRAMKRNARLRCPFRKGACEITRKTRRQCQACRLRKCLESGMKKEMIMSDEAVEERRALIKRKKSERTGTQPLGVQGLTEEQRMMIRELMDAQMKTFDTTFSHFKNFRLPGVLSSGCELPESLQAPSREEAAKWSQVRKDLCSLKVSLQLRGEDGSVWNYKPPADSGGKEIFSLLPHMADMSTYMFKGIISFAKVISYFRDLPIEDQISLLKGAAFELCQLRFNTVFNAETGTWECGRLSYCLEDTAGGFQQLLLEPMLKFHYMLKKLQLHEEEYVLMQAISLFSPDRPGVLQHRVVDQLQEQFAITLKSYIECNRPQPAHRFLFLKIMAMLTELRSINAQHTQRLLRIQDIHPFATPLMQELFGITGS

[10] = Bioavailability in rat at 0.5 mg/kg, iv measured after 30 mins by LC-MS/MS analysis; type: ADME, organism-based; conditions: in vivo
[11] = tested on: Human immunodeficiency virus 1; experiment: Antiviral activity against HIV1 infected in human MT4 cells assessed as inhibition of viral replication; type: functional, organism-based; conditions: Human immunodeficiency virus 1, MT4
[12] = Bioavailability in dog at 1 mg/kg, iv measured after 30 mins by LC-MS/MS analysis; type: ADME, organism-based, Canis lupus familiaris; conditions: in vivo
[13] = Solubility of the compound at pH 7 incubated for 12 hrs by UPLC analysis; type: physicochemical; conditions: buffer, pH 7, 12 h
[14] = Half-life in human; type: ADME
[15] = Stability of the compound assessed as compound hydrolysis by measuring relative rate constant by dilatometric method; type: physicochemical
[16] = target: MAP kinase p38 (Homo sapiens, UniProt O15264+Q15759+Q16539+P53778); experiment: Inhibition of p38-MAPK (unknown origin); type: protein assay
[17] = tested on: Mus musculus; experiment: Antiinflammatory activity in LPS-induced Balb/c mouse model assessed as reduction in TNF-alpha release administered orally for 30 mins followed by LPS-stimulation and measured after 90 mins by ELISA analysis; type: functional; conditions: 2 h, route po, time 120 min
[18] = Oral bioavailability in rat; type: ADME, organism-based; conditions: in vivo
[19] = Inhibition of Acinetobacter baumannii beta-lactamase OXA-235
[20] = Inhibition of Acinetobacter baumannii beta-lactamase OXA-24
[21] = Inhibition of Acinetobacter baumannii beta-lactamase OXA-143
[22] = Solubility of the compound at pH 7.4; type: physicochemical; conditions: buffer
[23] = Stability of the compound in 0.01 N HCL at pH 2.0 assessed as half-life; type: physicochemical
[24] = Half-life in iv dosed rat plasma; type: ADME, organism-based
[25] = tested on: Plasmodium falciparum; experiment: Antiplasmodial activity against Plasmodium falciparum W2 assessed as inhibition of parasite growth; type: functional, organism-based
[26] = Half-life in po dosed rat; type: ADME, organism-based; conditions: in vivo
[27] = Stability of the compound at pH 2 assessed as half-life; type: physicochemical; conditions: buffer
[28] = Oral bioavailability in mouse; type: ADME, organism-based; conditions: in vivo
[29] = target: Polymerase acidic protein (Influenza A virus (A/Puerto Rico/8/1934(H1N1)), UniProt P03433); experiment: Inhibition of Influenza A virus CEN
[30] = target: Sterol O-acyltransferase 1 (Rattus norvegicus, UniProt O70536); experiment: Inhibition of ACAT in rat
Chain of Sterol O-acyltransferase 1 (O70536 whole entry): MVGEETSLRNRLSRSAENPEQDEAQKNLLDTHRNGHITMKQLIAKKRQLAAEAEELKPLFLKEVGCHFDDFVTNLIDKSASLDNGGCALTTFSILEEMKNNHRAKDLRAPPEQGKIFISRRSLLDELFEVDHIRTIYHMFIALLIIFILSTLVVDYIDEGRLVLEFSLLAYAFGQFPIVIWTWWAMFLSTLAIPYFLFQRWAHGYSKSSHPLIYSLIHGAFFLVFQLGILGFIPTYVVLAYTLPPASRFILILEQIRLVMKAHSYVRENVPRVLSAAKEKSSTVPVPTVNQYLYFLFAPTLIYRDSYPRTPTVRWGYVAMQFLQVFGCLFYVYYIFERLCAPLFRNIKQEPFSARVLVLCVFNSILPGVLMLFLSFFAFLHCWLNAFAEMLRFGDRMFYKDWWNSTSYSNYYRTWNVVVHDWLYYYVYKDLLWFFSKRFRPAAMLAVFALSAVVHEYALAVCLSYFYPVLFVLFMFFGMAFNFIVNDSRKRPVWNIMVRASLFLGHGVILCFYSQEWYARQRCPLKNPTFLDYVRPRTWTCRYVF

[31] = tested on: CCRF-CEM; experiment: Anticancer activity against human CCRF-CEM cells; type: functional, cell-based
[32] = Oral bioavailability in human; type: ADME, organism-based; conditions: in vivo
[33] = target: Hepatitis C virus serine protease, NS3/NS4A (Hepatitis C virus, UniProt A3EZI9+D2K2A8); experiment: Inhibition of Hepatitis C virus NS4A-NS3 protease by continuous assay; type: protein-complex assay, Hepacivirus hominis
Chain of Hepatitis C virus serine protease, NS3/NS4A (D2K2A8 whole entry): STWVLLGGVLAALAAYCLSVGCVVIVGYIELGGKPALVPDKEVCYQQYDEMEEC
Chain of Hepatitis C virus serine protease, NS3/NS4A (A3EZI9 whole entry): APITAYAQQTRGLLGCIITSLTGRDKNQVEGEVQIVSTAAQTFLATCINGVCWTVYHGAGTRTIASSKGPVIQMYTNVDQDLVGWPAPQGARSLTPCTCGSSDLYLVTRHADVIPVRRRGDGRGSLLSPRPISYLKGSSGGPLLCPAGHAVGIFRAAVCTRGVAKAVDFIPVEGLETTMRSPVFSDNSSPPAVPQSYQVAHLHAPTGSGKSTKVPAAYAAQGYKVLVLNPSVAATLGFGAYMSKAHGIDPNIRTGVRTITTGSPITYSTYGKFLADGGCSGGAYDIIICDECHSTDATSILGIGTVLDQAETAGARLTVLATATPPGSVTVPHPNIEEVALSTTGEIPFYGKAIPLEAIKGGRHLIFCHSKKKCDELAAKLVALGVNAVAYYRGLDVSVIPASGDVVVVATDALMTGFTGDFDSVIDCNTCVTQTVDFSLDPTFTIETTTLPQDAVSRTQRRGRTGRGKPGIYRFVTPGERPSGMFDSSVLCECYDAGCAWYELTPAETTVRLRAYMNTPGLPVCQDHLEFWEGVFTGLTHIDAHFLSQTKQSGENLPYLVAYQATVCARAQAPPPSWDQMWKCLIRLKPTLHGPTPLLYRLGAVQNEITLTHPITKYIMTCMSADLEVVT

[34] = Inhibition of Calcium channel (unknown origin); set-up: species or system Homo sapiens
[35] = tested on: Cavia porcellus; experiment: Antiinflammatory activity in po dosed substance P-induced guinea pig model of dermal inflammation; type: functional; conditions: read-out: ID50 (the source's name)
[36] = Antiplatelet activity in human platelet rich plasma assessed as platelet aggregation; type: functional, cell-free
[37] = Stability of the compound assessed as compound hydrolysis by measuring rate constant; type: physicochemical

Nc1ccn([C@@H]2CS[C@H](CO)O2)c(=O)n1 [LAMIVUDINE]
EC50 [1]: 2000 nM
IC50 [2]: 870 nM

COc1ccc(C2=CN(CNC(C)=O)CC2=O)cc1
pKa [3]: < 6
degraded at 18 h [4]: 40%
degraded at 18 h [5]: < 1%

c1ccc([C@@]23OC[C@@H](CCn4c2nc2ccccc24)O3)cc1
ED50 [6]: 100 mg/kg

C[C@@H]1CCO[C@H]2Cn3cc(C(=O)NCc4ccc(F)cc4F)c(=O)c(O)c3C(=O)N12 [DOLUTEGRAVIR]
Ratio EC50 [7]: 4.8
Fu [8]: 0.7%
Emax at 15 µM [9]: 51%
bioavailability [10]: 52%
EC50 [11]: 1.7 nM
bioavailability [12]: 17%
solubility [13]: 53 µg/mL (≈ 0.126 mM)
half-life [14]: 14 h

CC1OCCO1
K [15]: 5.1 10^3No_unit

C[C@]1(NC(=O)c2ccccc2)CO[C@H](c2nc(-c3ccncc3)c(-c3ccc(F)cc3)[nH]2)OC1
IC50 [16]: 44 nM
ED50 [17]: 10 mg/kg
bioavailability [18]: 64%

C[C@]1(Cn2ccnn2)[C@H](C(=O)O)N2C(=O)C[C@H]2S1(=O)=O [TAZOBACTAM]
IC50 [19]: 4880 nM
IC50 [20]: 27900 nM
IC50 [21]: 5900 nM

Nc1nc2c(ncn2COCCO)c(=O)[nH]1 [ACYCLOVIR]
solubility [22]: 2500 µg/mL (≈ 11.1 mM)

C[C@H]1[C@@H](O)O[C@@H]2O[C@@]3(C)CC[C@H]4[C@H](C)CC[C@@H]1[C@@]24OO3 [ARTENIMOL]
half-life [23]: 17 h
half-life [24]: 0.383 h
IC50 [25]: 0.45 nM
half-life [26]: 0.5 h
half-life [27]: 17 h
bioavailability [28]: 1.4%

O=C1c2c(O)c(=O)ccn2N([C@@H]2c3ccccc3SCc3c2ccc(F)c3F)[C@@H]2COCCN12 [BALOXAVIR]
IC50 [29]: 2.5 nM
half-life [14]: 79 h

C1COCO1
K [15]: 1

c1ccc(-c2nc(C3OCCCO3)[nH]c2-c2ccccc2)cc1
IC50 [30]: 110 nM

Nc1nc(Cl)nc2c1ncn2[C@@H]1O[C@H](CO)[C@@H](O)[C@@H]1F [CLOFARABINE]
IC50 [31]: 60 nM
bioavailability [32]: 57%

CCC[C@H](NC(=O)[C@@H]1[C@H]2O[C@H]3CCCOc4cccc(c4)CC(=O)N[C@@H](C4CCCCC4)CN1C[C@@H]2O3)C(=O)C(=O)NCC(=O)N[C@H](C(=O)O)c1ccccc1
Ki [33]: 38 nM

Cc1cc(C)n(CCCC[C@H]2CO[C@@H](c3nc(-c4ccccc4)c(-c4ccccc4)[nH]3)OC2)n1
IC50 [30]: 75 nM

CCC[C@H](NC(=O)[C@@H]1[C@H]2O[C@H]3CCCOc4cccc(c4)CC(=O)N[C@@H](C4CCCCC4)CN1C[C@@H]2O3)C(=O)C(=O)NCC(=O)N[C@H](C(=O)OC(C)(C)C)c1ccccc1
Ki [33]: 38 nM

O=c1[nH]nc(CN2CCO[C@H](OCc3cc(C(F)(F)F)cc(C(F)(F)F)c3)[C@@H]2c2ccccc2)[nH]1
pKa [3]: < 3
IC50 [34]: 12000 nM
ED50 [35]: 0.009 mg/kg

Nc1ccn([C@H]2CS[C@@H](CO)O2)c(=O)n1
EC50 [1]: 200 nM
IC50 [2]: 1220 nM

CCCCC[C@H](O)/C=C/[C@H]1O[C@H]2C[C@H](O2)[C@@H]1C/C=C\CCCC(=O)O
EC50 [36]: 162 nM
K [37]: 5.5 10^5/M/s

C[C@@H]1CC[C@H]2[C@@H](C)[C@](O)(C(F)(F)F)O[C@@H]3O[C@@]4(C)CC[C@@H]1[C@]32OO4
half-life [24]: 1.43 h
IC50 [25]: 2.6 nM
half-life [27]: 760 h
bioavailability [28]: 28%

C[C@]1(COC(=O)Cc2ccc(O)c(O)c2)[C@H](C(=O)O)N2C(=O)/C(=C/c3ccccn3)[C@H]2S1(=O)=O
IC50 [19]: 8 nM
IC50 [20]: 15 nM
IC50 [21]: 3 nM
